Source: patent publication US9115093B2, “Substituted bicyclic dihydropyrimidinones and their use as inhibitors of neutrophil elastase activity” (Boehringer Ingelheim International GmbH, priority 2013, dated 2015)

target: T1, neutrophil elastase (Homo sapiens, UniProt P08246); assay: Human Neutrophil Elastase Assay; type: biochemical; parameters: purchased Calbiochem 324681; conditions: substrate MeOSuc-Ala-Ala-Pro-Val-AMC, pH 7.5, room temperature
T1 sequence (P08246 30-247 limits assumed): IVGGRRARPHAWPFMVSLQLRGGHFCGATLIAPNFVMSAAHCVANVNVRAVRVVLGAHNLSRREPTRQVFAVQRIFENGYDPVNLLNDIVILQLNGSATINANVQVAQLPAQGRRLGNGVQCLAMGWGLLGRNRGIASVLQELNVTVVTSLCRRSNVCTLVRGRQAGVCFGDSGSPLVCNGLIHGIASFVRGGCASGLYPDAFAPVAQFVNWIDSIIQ
How it was run: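 Readout: AMC fluorescence (ex 380, em 460 nm) after 60 min room-temperature reaction with 250 nM MeOSuc-AAPV-AMC, following 15 min compound–enzyme preincubation. Buffer: Tris/NaCl pH 7.5, 0.01% BSA.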

Compound	IC50 [nM]
N#Cc1ccc(C2C3=C(CCCC3=O)N(c3cccc(C(F)(F)F)c3)C(=O)N2CC(=O)NCC2CCC(=O)N2)cc1 (centres unmarked) [Example 36.36]	7.9
CN(C(=O)CN1C(=O)N(c2cccc(C(F)(F)F)c2)C2=C(C(=O)CCC2)C1c1ccc(C#N)cc1)C1CC1 (centres unmarked) [Example 36.4]	2.4
CN1CC(CNC(=O)CN2C(=O)N(c3cccc(C(F)(F)F)c3)C3=C(C(=O)CCC3)C2c2ccc(C#N)cc2)CC1=O (centres unmarked) [Example 36.59]	8.6
N#Cc1ccc(C2C3=C(CCCC3=O)N(c3cccc(C(F)(F)F)c3)C(=O)N2CC(=O)NC2CCOC2)cc1 (centres unmarked) [Example 36.9]	10.6
Cc1nc2c(o1)CN(C(=O)CN1C(=O)N(c3cccc(C(F)(F)F)c3)C3=C(C(=O)CCC3)C1c1ccc(C#N)cc1)CC2 (centres unmarked) [Example 36.65]	16.2
CC(=O)N1CCN(C(=O)CN2C(=O)N(c3cccc(C(F)(F)F)c3)C3=C(C(=O)CCC3)C2c2ccc(C#N)cc2)CC1 (centres unmarked) [Example 36.60]	3.7
CNC(=O)N1C(=O)N(c2cccc(C(F)(F)F)c2)C2=C(C(=O)CCC2)C1c1ccc(C#N)cc1 (centres unmarked) [Example 39.1]	1.2
N#Cc1ccc(C2C3=C(CCCC3=O)N(c3cccc(C(F)(F)F)c3)C(=O)N2CC(=O)N2CC(=O)N3CCCCC3C2)cc1 (centres unmarked) [Example 36.73]	35.5
N#Cc1ccc(C2NC(=O)N(c3cccc(C(F)(F)F)c3)C3=C2C(=O)CCC3)cn1 (centres unmarked) [Example 16, 5-(2,5-dioxo-1-(3-(trifluoromethyl)phenyl)-1,2,3,4,5,6,7,8-octahydroquinazolin-4-yl)-picolinonitrile]	54.1
N#Cc1ccc(C2C3=C(CCCC3=O)N(c3cccc(C(F)(F)F)c3)C(=O)N2CC(N)=O)cc1 (centres unmarked) [Example 33, 2-(4-(4-Cyanophenyl)-2,5-dioxo-1-(3-(trifluoromethyl)phenyl)-1,2,5,6,7,8-hexahydroquinazolin-3(4H)-yl)acetamide]	9.6
COC1CCN(C(=O)CN2C(=O)N(c3cccc(C(F)(F)F)c3)C3=C(C(=O)CCC3)C2c2ccc(C#N)cc2)CC1 (centres unmarked) [Example 36.40]	3.1
CN(CCN1CCCC1=O)C(=O)CN1C(=O)N(c2cccc(C(F)(F)F)c2)C2=C(C(=O)CCC2)C1c1ccc(C#N)cc1 (centres unmarked) [Example 36.67]	4.2
N#Cc1ccc(C2NC(=O)N(c3cccc(C(F)(F)F)c3)C3=C2C(=O)CCC3)nc1 (centres unmarked) [Example 15, 6-(2,5-Dioxo-1-(3-(trifluoromethyl)phenyl)-1,2,3,4,5,6,7,8-octahydroquinazolin-4-yl)-nicotinonitrile]	52.1
N#Cc1ccc(C2C3=C(CCCC3=O)N(c3cccc(C(F)(F)F)c3)C(=O)N2CC(=O)N2CC[S+]([O-])CC2)cc1 (centres unmarked) [Example 36.45]	2.1
N#Cc1ccc(C2C3=C(CCCC3=O)N(c3cccc(C(F)(F)F)c3)C(=O)N2CC(=O)N2CC3(CCC3)C2)cc1 (centres unmarked) [Example 36.17]	5.5
N#Cc1ccc(C2C3=C(CCCC3=O)N(c3cccc(C(F)(F)F)c3)C(=O)N2CC(=O)N2CCN(C3CC3)CC2)cc1 (centres unmarked) [Example 36.55]	21.6
N#Cc1ccc(C2NC(=O)N(c3cccc(C(F)(F)F)c3)C3=C2C(=O)CC2(CCOCC2)C3)cc1 (centres unmarked) [Example 4, 4-(2′,5′-Dioxo-1′-(3-(trifluoromethyl)phenyl)-2,2′,3,3′,4′,5,5′,6,6′,8′-decahydro-1′H-spiro[pyran-4,7′-quinazoline]-4′-yl)benzonitrile]	110
N#Cc1ccc(C2C3=C(CCCC3=O)N(c3cccc(C(F)(F)F)c3)C(=O)N2CC(=O)N2CCC(O)C2)cc1 (centres unmarked) [Example 36.8]	2.1
Cn1ccc(CN2C(=O)N(c3cccc(C(F)(F)F)c3)C3=C(C(=O)CCC3)C2c2ccc(C#N)cc2)n1 (centres unmarked) [Example 24.3]	11.1
N#Cc1ccc(C2C3=C(CCCC3=O)N(c3cccc(C(F)(F)F)c3)C(=O)N2CC(=O)N2CCC3(CC3)C2)cc1 (centres unmarked) [Example 36.16]	3.6
N#Cc1ccc(C2C3=C(CCCC3=O)N(c3cccc(C(F)(F)F)c3)C(=O)N2CC(=O)NCc2ccc(=O)[nH]c2)cc1 (centres unmarked) [Example 36.52]	11.7
CC1(C)CC(=O)C2=C(C1)N(c1cccc(C(F)(F)F)c1)C(=O)NC2c1ccc(C#N)cc1 (centres unmarked) [Example 3, 4-(7,7-Dimethyl-2,5-dioxo-1-(3-(trifluoromethyl)phenyl)-1,2,3,4,5,6,7,8-octahydroquinazolin-4-yl)benzonitrile]	68.3
Cn1ncc2c1CN(C(=O)CN1C(=O)N(c3cccc(C(F)(F)F)c3)C3=C(C(=O)CCC3)C1c1ccc(C#N)cc1)C2 (centres unmarked) [Example 35, 4-(3-(2-(1-Methylpyrrolo[3,4-c]pyrazol-5(1H,4H,6H)-yl)-2-oxoethyl)-2,5-dioxo-1-(3-(trifluoromethyl)phenyl)-1,2,3,4,5,6,7,8-octahydroquinazolin-4-yl)benzonitrile]	1.7
CC1(C)CCC2=C(C1=O)C(c1ccc(C#N)cc1)NC(=O)N2c1cccc(C(F)(F)F)c1 (centres unmarked) [Example 2, 4-(6,6-Dimethyl-2,5-dioxo-1-(3-(trifluoromethyl)phenyl)-1,2,3,4,5,6,7,8-octahydroquinazolin-4-yl)benzonitrile]	44.9
N#Cc1ccc(C2C3=C(CCCC3=O)N(c3cccc(C(F)(F)F)c3)C(=O)N2CC(=O)N2CCSCC2)cc1 (centres unmarked) [Example 36.28]	4.4
CN(C)C(=O)CN1C(=O)N(c2cccc(C(F)(F)F)c2)C2=C(C(=O)CCC2)C1c1ccc(C#N)cc1 (centres unmarked) [Example 34, 2-(4-(4-Cyanophenyl)-2,5-dioxo-1-(3-(trifluoromethyl)phenyl)-1,2,5,6,7,8-hexahydroquinazolin-3(4H)-yl)-N,N-dimethylacetamide]	3.1
CC(=O)NCCNC(=O)CN1C(=O)N(c2cccc(C(F)(F)F)c2)C2=C(C(=O)CCC2)C1c1ccc(C#N)cc1 (centres unmarked) [Example 36.26]	17.8
CN(CC1CC1)C(=O)CN1C(=O)N(c2cccc(C(F)(F)F)c2)C2=C(C(=O)CCC2)C1c1ccc(C#N)cc1 (centres unmarked) [Example 36.7]	3.4

The next lines start with the values.

IC50 [nM]	Compound
13.8	N#Cc1ccc(C2NC(=O)N(c3cc(F)cc(C(F)(F)F)c3)C3=C2C(=O)CCC3)cc1 (centres unmarked) [Example 52.2]
23.8	CS(=O)(=O)N1C(=O)N(c2ccnc(C(F)(F)F)c2)C2=C(C(=O)CCC2)C1c1ccc(C#N)cc1 (centres unmarked) [Example 69, 4-(3-(Methylsulfonyl)-2,5-dioxo-1-(2-(trifluoromethyl)pyridin-4-yl)-1,2,3,4,5,6,7,8-octahydroquinazolin-4-yl)benzonitrile]
22.6	CN1C(=O)N(c2ccnc(C(F)(F)F)c2)C2=C(C(=O)CCC2)C1c1ccc(C#N)cc1 (centres unmarked) [Example 65, 4-(3-Methyl-2,5-dioxo-1-(2-(trifluoromethyl)pyridin-4-yl)-1,2,3,4,5,6,7,8-octahydroquinazolin-4-yl)benzonitrile]
< 1	N#Cc1ccc(C2C3=C(CCCC3=O)N(c3cccc(C(F)(F)F)c3)C(=O)N2C(=O)NC2CC[S+]([O-])CC2)cc1 (centres unmarked) [Example 71, 4-(4-Cyanophenyl)-2,5-dioxo-N-(1-oxo-hexahydro-1λ^4-thiopyran-4-yl)-1-(3-(trifluoromethyl)phenyl)-1,2,5,6,7,8-hexahydroquinazoline-3(4H)-carboxamide]
5.2	COC(=O)CCCS(=O)(=O)N1C(=O)N(c2cccc(C(F)(F)F)c2)C2=C(C(=O)CCC2)C1c1ccc(C#N)cc1 (centres unmarked) [Example 44.10, methyl 4-(4-(4-cyanophenyl)-2,5-dioxo-1-(3-(trifluoromethyl)phenyl)-1,2,5,6,7,8-hexahydroquinazolin-3(4H)-ylsulfonyl)butanoate]
5.5	CC(C)(O)CNC(=O)N1C(=O)N(c2ccnc(C(F)(F)F)c2)C2=C(C(=O)CCC2)C1c1ccc(C#N)cc1 (centres unmarked) [Example 76.4]
1	CCCNC(=O)N1C(=O)N(c2cccc(C(F)(F)F)c2)C2=C(C(=O)CCC2)C1c1ccc(C#N)cc1 (centres unmarked) [Example 39.2]
< 1	N#Cc1ccc(C2C3=C(CCCC3=O)N(c3cccc(C(F)(F)F)c3)C(=O)N2C(=O)NC2CCCS(=O)(=O)C2)cc1 (centres unmarked) [Example 70.20]
1.4	N#Cc1ccc(C2C3=C(CCCC3=O)N(c3cccc(C(F)(F)F)c3)C(=O)N2C(=O)NCC2CC2)cc1 (centres unmarked) [Example 70.5]
< 1	N#Cc1ccc(C2C3=C(CCCC3=O)N(c3cccc(C(F)(F)F)c3)C(=O)N2C(=O)NCC2CCOC2)cc1 (centres unmarked) [Example 39.9]
< 1	CCNC(=O)N1C(=O)N(c2cccc(C(F)F)c2)C2=C(C(=O)CCC2)C1c1ccc(C#N)cc1S(C)(=O)=O (centres unmarked) [Example 51, 4-(4-Cyano-2-(methylsulfonyl)phenyl)-1-(3-(difluoromethyl)phenyl)-N-ethyl-2,5-dioxo-1,2,5,6,7,8-hexahydroquinazoline-3(4H)-carboxamide]
< 1	N#CCNC(=O)N1C(=O)N(c2cccc(C(F)(F)F)c2)C2=C(C(=O)CCC2)C1c1ccc(C#N)cc1 (centres unmarked) [Example 70.2]
3.4	N#Cc1ccc(C2C3=C(CCCC3=O)N(c3cccc(C(F)(F)F)c3)C(=O)N2S(=O)(=O)CCCC(=O)O)cc1 (centres unmarked) [Example 45, 4-(4-(4-Cyanophenyl)-2,5-dioxo-1-(3-(trifluoromethyl)phenyl)-1,2,5,6,7,8-hexahydroquinazolin-3(4H)-ylsulfonyl)butanoic acid]
1.8	CS(=O)(=O)c1cc(C#N)ccc1[C@@H]1C2=C(CCCC2=O)N(c2cccc(C(F)(F)F)c2)C(=O)N1CC#N [Example 59, (S)-4-(3-(Cyanomethyl)-2,5-dioxo-1-(3-(trifluoromethyl)phenyl)-1,2,3,4,5,6,7,8-octahydroquinazolin-4-yl)-3-(methylsulfonyl)benzonitrile]
1	Cn1ccc(CNC(=O)N2C(=O)N(c3cccc(C(F)(F)F)c3)C3=C(C(=O)CCC3)C2c2ccc(C#N)cc2)n1 (centres unmarked) [Example 39.13]
1.9	CC(C)NC(=O)N1C(=O)N(c2ccnc(C(F)(F)F)c2)C2=C(C(=O)CCC2)C1c1ccc(C#N)cc1 (centres unmarked) [Example 76.3]
